{"source": "patent US8513306B2", "about": "“Enhancement of urogenital function” (priority 2005, dated 2013)", "key": {"[1]": {"system": "two male subjects with urinary symptoms", "assay": "Additional trials: creatine monohydrate in solution, loading phase and maintenance phase", "type": "in vivo, human", "description": "[…] […] […] The post-loading phase is referred to herein as a maintenance phase. The dose may vary during the maintenance phase; however, it is generally at least 50% less than the dose used in a loading phase.\nIn these trials, urinary flow-related symptoms were reduced.\nHowever, in various trials, a delay in relief was experienced that corresponded to the dose size where a larger than required dose would actually delay relief (e.g. beyond 24 hours to as much as 72 hours). […] Such trials indicate that a dosage range exists for relief of symptoms and for timing of the relief."}, "[2]": {"system": "subject one with nocturia and diagnosed moderate prostate enlargement", "assay": "Trial: single dose of creatine monohydrate powder in solution prior to sleep", "type": "in vivo, human", "settings": "person two", "description": "A trial provided creatine monohydrate as a powder (about 100% creatine monohydrate) and administered a single dose (approximately 0.1 to 0.2 g) of the creatine monohydrate powder in a solution (about 0.09 to 0.17 g creatine) approximately 0.5 to 3 hours prior to sleep. Urinary flow-related symptoms were reduced for the immediate sleep period and for sleep periods during the following 48 hours.\nThe subject weighed approximately 80 kg (about 175 lbs). Thus, the dosage was about 0.9 mg of creatine per kg of body weight. Range may vary by individual and prior consumption of a creatine compound. A general range for CSUE may be from about 0.4 mg creatine monohydrate to about 4.0 mg creatine monohydrate per kg body weight per day (e.g., about 32 mg to about 320 mg per day for a subject weighing about 80 kg). As already mentioned, the various trials used creatine monohydrate powder (about 100%) in solution. Thus, in terms of creatine content, the general range for CSUE may be from about 0.35 mg creatine per kg body weight per day (e.g., about 0.4*(3.124.4/5) mg) to about 3.5 mg creatine per kg body weight per day (e.g., 4.0*(3.124.4/5) mg). While dose may vary from patient to patient, the dose is typically less than the dose for CSR."}, "[3]": {"system": "varsity football and track athletes", "settings": "3 g per day without prior loading; cited from earlier work"}, "younger subject one": {"system": "younger subject one", "assay": "Observation of the younger subject on lycopene-containing foods", "type": "in vivo, human", "settings": "on occasion, for one day at a time", "excerpt": "Other exemplary compositions may include lycopene. […] Lycopene is present in tomato products while other foods of interest include certain beans and blue berries. An exemplary method includes administering such a composition. For example, a composition that includes creatine and lycopene may be administered to a subject to treat a urologic disorder. An exemplary method includes administering creatine and lyocpene to treat a urologic disorder."}, "patients": {"system": "patients", "settings": "in vivo; cited from earlier work"}, "younger subject two [4]": {"system": "younger subject two", "assay": "Trial: small amounts of amantadine with creatine, with or without a PDE5 inhibitor ED drug", "type": "in vivo, human", "settings": "for Results in conjugal sexual activity: ED drugs in low doses over the past four years; for Effectiveness of small dose of the PDE5 inhibitor ED drug alone: VIAGRA about 12.5 mg or LEVITRA about 2.5 mg, normally", "description": "In a trial, the younger subject two ingested small amounts of amantadine along with about 88 mg of creatine. The small amounts of amantadine were measured by opening a capsule of amantadine and pouring out small amounts. Ten individual administrations used less than one 100 mg capsule of amantadine. Thus, the dose of amantadine was approximately 5 mg to approximately 10 mg.\nThe subject noted a body weight that varied little from about 78 kg over the past twenty plus years. The subject noted no use of blood pressure or other prescribed medications on a regular basis."}, "[5]": {"settings": "in vivo; cited from earlier work"}, "younger subject two [6]": {"system": "younger subject two", "assay": "Trial: occasional amantadine for flu prophylaxis, nocturnal urinary symptoms", "type": "in vivo, human", "settings": "occasional administration of about 100 mg", "description": "A trial involving the younger subject two involved occasional administration of about 100 mg of amantadine for flu prophylaxis."}, "[7]": {"settings": "single dose approx 0.1 to 0.2 g in solution prior to sleep"}}, "data": [{"smiles": "CN(CC(=O)O)C(=N)N.O", "note": "[creatine monohydrate]", "values": [{"measurement": "Symptoms (urinary)", "setting": "[1]; both subjects, loading phase 0.1 to 1.0 g, then maintenance about 50 to 150 mg every other day", "result": "symptoms were relieved"}, {"measurement": "Initiation of urine stream at night", "setting": "[1]; doses larger than about 0.25 g in the maintenance phase, younger subject", "result": "more difficult until 24 hours to 48 hours later"}, {"measurement": "Urinary symptom reduction", "setting": "[1]; doses of greater than 1 g after the loading phase, both subjects", "result": "less urinary symptom reduction"}, {"measurement": "Urinary flow-related symptoms", "setting": "[2]; single dose approx 0.1 to 0.2 g in solution 0.5 to 3 hours prior to sleep, immediate sleep period and sleep periods of following 48 hours", "result": "reduced"}, {"measurement": "Nocturnal erections", "setting": "[2]; [7]", "result": "increase in nocturnal erections"}, {"measurement": "Testicular blood flow as evidenced by palpable scrotal content enlargement", "setting": "[2]; [7]", "result": "increase in testicular blood flow"}, {"measurement": "Ergogenic effect", "setting": "[3]", "result": "did not observe ergogenic effect"}]}, {"smiles": "CC(C)=CCC/C(C)=C/C=C/C(C)=C/C=C/C(C)=C/C=C/C=C(C)/C=C/C=C(C)/C=C/C=C(\\C)CCC=C(C)C", "note": "[Lycopene, lycopene]", "values": [{"measurement": "Nocturnal urine stream slowing", "setting": "younger subject one", "result": "a lack of nocturnal urine stream slowing"}]}, {"smiles": "CC12CC3CC(C)(C1)CC(N)(C3)C2", "note": "[Memantine, 1-amino-3,5-dimethyl-adamantane]", "values": [{"measurement": "Tolerability", "setting": "patients", "result": "generally well-tolerated"}]}, {"smiles": "CCCc1nn(C)c2c(=O)[nH]c(-c3cc(S(=O)(=O)N4CCN(C)CC4)ccc3OCC)nc12.O=C(O)CC(O)(CC(=O)O)C(=O)O", "note": "[VIAGRA®, 1-[4-ethoxy-3-(6,7-dihydro-1-methyl-7-oxo-3-propyl-1H-pyrazolo[4,3-d]pyrimidin-5-yl)phenylsulfonyl]-4-methylpiperazine citrate]", "values": [{"measurement": "Results in conjugal sexual activity", "setting": "younger subject two [4]", "result": "good results"}, {"measurement": "Effectiveness of small dose of the PDE5 inhibitor ED drug alone", "setting": "younger subject two [4]", "result": "somewhat marginally effective"}]}, {"smiles": "C[C@]12CC[C@H](OS(=O)(=O)O)CC1=CC[C@@H]1[C@@H]2CC[C@]2(C)C(=O)CC[C@@H]12", "note": "[DHEA-S, DHEA-sulfate]", "values": [{"measurement": "Levels of testosterone and androstenedione", "setting": "[5]", "result": "increased levels"}]}, {"smiles": "CCCc1nc(C)c2c(=O)nc(-c3cc(S(=O)(=O)N4CCN(CC)CC4)ccc3OCC)[nH]n12", "note": "[LEVITRA®, 4-[2-ethoxy-5-(4-ethylpiperazin-1-yl)sulfonyl-phenyl]-9-methyl-7-propyl-3,5,6,8-tetrazabicyclo[4.3.0]nona-3,7,9-trien-2-one]", "values": [{"measurement": "Results in conjugal sexual activity", "setting": "younger subject two [4]", "result": "good results"}, {"measurement": "Effectiveness of small dose of the PDE5 inhibitor ED drug alone", "setting": "younger subject two [4]", "result": "somewhat marginally effective"}]}, {"smiles": "NC12CC3CC(CC(C3)C1)C2", "note": "[amantadine, adamantan-1-amine]", "values": [{"measurement": "Effect compared with DHEA taken to enhance libido (readiness for and enjoyment of orgasm)", "setting": "younger subject two [4]; about 5 mg of amantadine", "result": "similarly beneficial but distinct effect"}, {"measurement": "Effect relative to that of the PDE5 inhibitor ED drugs", "setting": "younger subject two [4]; subject's observation", "result": "additive"}, {"measurement": "Nocturnal urinary symptoms", "setting": "younger subject two [6]", "result": "reduction in nocturnal urinary symptoms"}]}]}
